Test results reported in patent publication US12077503B2, “Substituted cyclic amides and their use as herbicides” (FMC CORPORATION, priority 2015, dated 2024).
Like-named read-outs stand apart in the source and are kept apart here.

Key:
Type in all cases: in vivo
rice (Oryra sativa) = test: Test B flooded paddy test; conditions: Oryza sativa, 250 g ai/ha, Flood, read-out: Rice plant response rating
Procedure, shortened: (§1)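 Evaluation by eye, against controls, occurred 13–15 d post-treatment in a greenhouse, using a 0 (no effect) to 100 (complete control) scale. Application was into the paddy water, 3 cm deep over the soil, on 2-leaf plants.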

[1] = tested on: barnyardgrass (Echinochloa crus-galli); test: Test B flooded paddy test; conditions: Echinochloa crus-galli, 250 g ai/ha, Flood, read-out: Barnyardgrass plant response rating
Procedure, shortened: as §1

[2] = tested on: sedge, umbrella (small-flower umbrella sedge, Cyperus difformis); test: Test B flooded paddy test; conditions: Cyperus difformis, 250 g ai/ha, Flood, read-out: Sedge, Umbrella plant response rating
Procedure, shortened: as §1

[3] = tested on: ducksalad (Heteranthera limosa); test: Test B flooded paddy test; conditions: Heteranthera limosa, 250 g ai/ha, Flood, read-out: Ducksalad plant response rating
Procedure, shortened: as §1

Kochia (Kochia scoparia) = test: Test A preemergence; conditions: Bassia scoparia, pre-emergence, 240 h; for pest or weed control at 125 g/ha: 125 g ai/ha; for pest or weed control at 500 g/ha: 500 g ai/ha
Procedure, shortened: (§2)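 Seeded soil received test chemicals as a preemergence directed spray, and seedlings at one to two leaves, 2–10 cm tall, received them postemergence, in a non-phytotoxic, surfactant-containing solvent mixture. Pots were held in a greenhouse for approximately 10 d, then rated for injury from 0, no effect, to 100, complete control.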

[4] = tested on: ryegrass, Italian (Italian ryegrass, Lolium multiflorum); test: Test A preemergence; conditions: Lolium multiflorum, pre-emergence, 240 h; for pest or weed control at 125 g/ha: 125 g ai/ha; for pest or weed control at 500 g/ha: 500 g ai/ha
Procedure, shortened: as §2

[5] = tested on: barnyardgrass (Echinochloa crus-galli); test: Test A preemergence; conditions: Echinochloa crus-galli, pre-emergence, 240 h; for pest or weed control at 125 g/ha: 125 g ai/ha; for pest or weed control at 500 g/ha: 500 g ai/ha
Procedure, shortened: as §2

[6] = tested on: ragweed (common ragweed, Ambrosia elatior); test: Test A preemergence; conditions: Ambrosia artemisiifolia, pre-emergence, 240 h; for pest or weed control at 125 g/ha: 125 g ai/ha; for pest or weed control at 500 g/ha: 500 g ai/ha
Procedure, shortened: as §2

[7] = tested on: pigweed (Amaranthus retroflexus); test: Test A preemergence; conditions: Amaranthus retroflexus, pre-emergence, 240 h; for pest or weed control at 125 g/ha: 125 g ai/ha; for pest or weed control at 500 g/ha: 500 g ai/ha
[8] = tested on: giant foxtail (Setaria faberii); test: Test A preemergence; conditions: Setaria faberi, pre-emergence, 240 h; for pest or weed control at 125 g/ha: 125 g ai/ha; for pest or weed control at 500 g/ha: 500 g ai/ha
Procedure, shortened: as §2

[9] = tested on: ryegrass, Italian (Italian ryegrass, Lolium multiflorum); test: Test A postemergence; conditions: Lolium multiflorum, post-emergence, 240 h, postemergence; for pest or weed control at 125 g/ha: 125 g ai/ha
Procedure, shortened: as §2

[10] = tested on: ragweed (common ragweed, Ambrosia elatior); test: Test A postemergence; conditions: Ambrosia artemisiifolia, post-emergence, 240 h, postemergence; for pest or weed control at 125 g/ha: 125 g ai/ha
Procedure, shortened: as §2

corn (Zea mays) = test: Test A postemergence; conditions: Zea mays, post-emergence, 240 h, postemergence; for plant injury at 125 g/ha: 125 g ai/ha
Procedure, shortened: as §2

[11] = tested on: blackgrass (Alopecurus myosuroides); test: Test A postemergence; conditions: Alopecurus myosuroides, post-emergence, 240 h, postemergence; for pest or weed control at 125 g/ha: 125 g ai/ha
Procedure, shortened: as §2

[12] = tested on: pigweed (Amaranthus retroflexus); test: Test A postemergence; conditions: Amaranthus retroflexus, post-emergence, 240 h, postemergence; for pest or weed control at 125 g/ha: 125 g ai/ha
Procedure, shortened: as §2

[13] = 0 to 100 scale where 0 is no effect and 100 is complete control
[14] = preemergence, 0 to 100 scale where 0 is no effect and 100 is complete control, read-out: Kochia plant response rating
[15] = preemergence, 0 to 100 scale where 0 is no effect and 100 is complete control, read-out: Ryegrass, Italian plant response rating
[16] = preemergence, 0 to 100 scale where 0 is no effect and 100 is complete control, read-out: Barnyardgrass plant response rating
[17] = preemergence, 0 to 100 scale where 0 is no effect and 100 is complete control, read-out: Ragweed plant response rating
[18] = preemergence, 0 to 100 scale where 0 is no effect and 100 is complete control, read-out: Pigweed plant response rating
[19] = preemergence, 0 to 100 scale where 0 is no effect and 100 is complete control, read-out: Foxtail, Giant plant response rating
[20] = scale of 0 to 100 where 0 is no effect and 100 is complete control

Which results are given for `COc1cc([C@H]2CN(C)C(=O)[C@@H]2C(=O)Nc2cccc(F)c2F)cc(OC)c1OC` [Compound 1210]?
pest or weed control at 250 g/ha (rice (Oryra sativa); [13]): 20%; pest or weed control at 250 g/ha [1, 13]: 50%; pest or weed control at 250 g/ha [2, 13]: 0%; pest or weed control at 250 g/ha [3, 13]: 30%; pest or weed control at 125 g/ha (Kochia (Kochia scoparia); preemergence, visual injury rating, 0 to 100 scale where 0 is no effect and 100 is complete control, approximately 10 d, read-out: Kochia plant response rating): 0%; pest or weed control at 500 g/ha (Kochia (Kochia scoparia); [14]): 10%; pest or weed control at 125 g/ha ([4]; preemergence, visual injury rating, 0 to 100 scale where 0 is no effect and 100 is complete control, approximately 10 d, read-out: Ryegrass, Italian plant response rating): 20%; pest or weed control at 500 g/ha [4, 15]: 50%; pest or weed control at 125 g/ha ([5]; preemergence, visual injury rating, 0 to 100 scale where 0 is no effect and 100 is complete control, approximately 10 d, read-out: Barnyardgrass plant response rating): 90%; pest or weed control at 500 g/ha [5, 16]: 100%; pest or weed control at 125 g/ha ([6]; preemergence, visual injury rating, 0 to 100 scale where 0 is no effect and 100 is complete control, approximately 10 d, read-out: Ragweed plant response rating): 0%; pest or weed control at 500 g/ha [6, 17]: 0%; pest or weed control at 125 g/ha ([7]; preemergence, visual injury rating, 0 to 100 scale where 0 is no effect and 100 is complete control, approximately 10 d, read-out: Pigweed plant response rating): 0%; pest or weed control at 500 g/ha [7, 18]: 0%; pest or weed control at 125 g/ha ([8]; preemergence, visual injury rating, 0 to 100 scale where 0 is no effect and 100 is complete control, approximately 10 d, read-out: Foxtail, Giant plant response rating): 100%; pest or weed control at 500 g/ha [8, 19]: 100%; pest or weed control at 125 g/ha ([9]; visual injury vs untreated controls after approx. 10 d, 0 = no effect, 100 = complete control, read-out: Ryegrass, Italian plant response rating (0 to 100 scale)): 30%; pest or weed control at 500 g/ha ([9]; 500 g ai/ha, 0 to 100 scale, 0 is no effect, 100 is complete control, read-out: Ryegrass, Italian plant response rating): 60%; pest or weed control at 125 g/ha ([10]; visual injury vs untreated controls after approx. 10 d, 0 = no effect, 100 = complete control, read-out: Ragweed plant response rating (0 to 100 scale)): 0%; pest or weed control at 500 g/ha ([10]; 500 g ai/ha, 0 to 100 scale, 0 is no effect, 100 is complete control, read-out: Ragweed plant response rating): 0%; plant injury at 125 g/ha (corn (Zea mays); visual injury vs untreated controls after approx. 10 d, 0 = no effect, 100 = complete control, read-out: Corn plant response rating (0 to 100 scale)): 0%; plant injury at 500 g/ha (corn (Zea mays); 500 g ai/ha, 0 to 100 scale, 0 is no effect, 100 is complete control, read-out: Corn plant response rating): 50%; pest or weed control at 125 g/ha ([11]; visual injury vs untreated controls after approx. 10 d, 0 = no effect, 100 = complete control, read-out: Blackgrass plant response rating (0 to 100 scale)): 0%; pest or weed control at 500 g/ha ([11]; 500 g ai/ha, 0 to 100 scale, 0 is no effect, 100 is complete control, read-out: Blackgrass plant response rating): 50%; pest or weed control at 125 g/ha ([12]; visual injury vs untreated controls after approx. 10 d, 0 = no effect, 100 = complete control, read-out: Pigweed plant response rating (0 to 100 scale)): 0%; pest or weed control at 500 g/ha ([12]; 500 g ai/ha, 0 to 100 scale, 0 is no effect, 100 is complete control, read-out: Pigweed plant response rating): 0%

How did the pest or weed control at 250 g/ha (rice (Oryra sativa); [20]) turn out when `CCOc1ccc([C@H]2CN(C)C(=O)[C@@H]2C(=O)Nc2ccccc2F)cc1` [Compound 903] was run?
Its pest or weed control at 250 g/ha is 0%.

What about the pest or weed control at 250 g/ha [1, 20] of the same molecule?
Its pest or weed control at 250 g/ha is 0%.

What about the pest or weed control at 250 g/ha [2, 20] of the same molecule?
Its pest or weed control at 250 g/ha is 0%.

What about the pest or weed control at 250 g/ha [3, 20] of the same molecule?
Its pest or weed control at 250 g/ha is 0%.

And the pest or weed control at 125 g/ha (Kochia (Kochia scoparia); [14])?
Its pest or weed control at 125 g/ha is 20%.

What about the pest or weed control at 500 g/ha (Kochia (Kochia scoparia); Preemergence, visual injury vs untreated controls after approximately 10 d, read-out: Kochia plant response rating (0 to 100 scale where 0 is no effect and 100 is complete control)) of the same molecule?
The pest or weed control at 500 g/ha was 90%.

And the pest or weed control at 125 g/ha [4, 15]?
The pest or weed control at 125 g/ha was 0%.

And the pest or weed control at 500 g/ha ([4]; Preemergence, visual injury vs untreated controls after approximately 10 d, read-out: Ryegrass, Italian plant response rating (0 to 100 scale where 0 is no effect and 100 is complete control))?
The pest or weed control at 500 g/ha was 0%.

What about the pest or weed control at 125 g/ha [5, 16] of the same molecule?
Its pest or weed control at 125 g/ha is 90%.

What about the pest or weed control at 500 g/ha ([5]; Preemergence, visual injury vs untreated controls after approximately 10 d, read-out: Barnyardgrass plant response rating (0 to 100 scale where 0 is no effect and 100 is complete control)) of the same molecule?
Its pest or weed control at 500 g/ha is 90%.

And the pest or weed control at 125 g/ha [6, 17]?
The pest or weed control at 125 g/ha was 0%.

What about the pest or weed control at 500 g/ha ([6]; Preemergence, visual injury vs untreated controls after approximately 10 d, read-out: Ragweed plant response rating (0 to 100 scale where 0 is no effect and 100 is complete control)) of the same molecule?
The pest or weed control at 500 g/ha was 0%.

And the pest or weed control at 125 g/ha [7, 18]?
The pest or weed control at 125 g/ha was 0%.

And the pest or weed control at 500 g/ha ([7]; Preemergence, visual injury vs untreated controls after approximately 10 d, read-out: Pigweed plant response rating (0 to 100 scale where 0 is no effect and 100 is complete control))?
Its pest or weed control at 500 g/ha is 0%.

And the pest or weed control at 125 g/ha [8, 19]?
Its pest or weed control at 125 g/ha is 90%.

What about the pest or weed control at 500 g/ha ([8]; Preemergence, visual injury vs untreated controls after approximately 10 d, read-out: Foxtail, Giant plant response rating (0 to 100 scale where 0 is no effect and 100 is complete control)) of the same molecule?
Its pest or weed control at 500 g/ha is 90%.

What about the pest or weed control at 125 g/ha ([9]; visual injury rating after approximately 10 d, read-out: Ryegrass, Italian plant response rating (0 to 100 scale, 0 no effect, 100 complete control)) of the same molecule?
Its pest or weed control at 125 g/ha is 0%.

What about the pest or weed control at 125 g/ha ([10]; visual injury rating after approximately 10 d, read-out: Ragweed plant response rating (0 to 100 scale, 0 no effect, 100 complete control)) of the same molecule?
The pest or weed control at 125 g/ha was 0%.

And the plant injury at 125 g/ha (corn (Zea mays); visual injury rating after approximately 10 d, read-out: Corn plant response rating (0 to 100 scale, 0 no effect, 100 complete control))?
Its plant injury at 125 g/ha is 0%.

What about the pest or weed control at 125 g/ha ([11]; visual injury rating after approximately 10 d, read-out: Blackgrass plant response rating (0 to 100 scale, 0 no effect, 100 complete control)) of the same molecule?
Its pest or weed control at 125 g/ha is 0%.

And the pest or weed control at 125 g/ha ([12]; visual injury rating after approximately 10 d, read-out: Pigweed plant response rating (0 to 100 scale, 0 no effect, 100 complete control))?
Its pest or weed control at 125 g/ha is 0%.
